# Values quoted from earlier work as cited in EP3231454B1, “BONE CEMENT COMPRISING MICROENCAPSULATED ANTIMICROBIAL” (UNIVERSIDAD PONTIFICIA COMILLAS, priority 2016, dated 2017).
# Conditions: addition of 1 g of vancomycin to bone cement
smiles,measurement,value
CN[C@H](CC(C)C)C(=O)N[C@H]1C(=O)N[C@@H](CC(N)=O)C(=O)N[C@H]2C(=O)N[C@H]3C(=O)N[C@H](C(=O)N[C@H](C(=O)O)c4cc(O)cc(O)c4-c4cc3ccc4O)[C@H](O)c3ccc(c(Cl)c3)Oc3cc2cc(c3O[C@@H]2O[C@H](CO)[C@@H](O)[C@H](O)[C@H]2O[C@H]2C[C@](C)(N)[C@H](O)[C@H](C)O2)Oc2ccc(cc2Cl)[C@H]1O [vancomycin],reduction in bending resistance,more than 20%
